# Results as given in ChEMBL document CHEMBL4219273, “Discovery of a novel olefin derivative as a highly potent and selective acetyl-CoA carboxylase 2 inhibitor with in vivo efficacy” (Bioorg Med Chem Lett, 2018).
# Target: Acetyl-CoA carboxylase 1 (Homo sapiens, UniProt Q13085)
# Experiment: Inhibition of recombinant human ACC1 assessed as reduction in conversion of acetyl-CoA to malonyl-CoA incubated for 1 to 3 hrs with substrate by MALDI-TOF-MS analysis
# Conditions: not given
row,Structure (SMILES),IC50
1,CC(=O)N[C@@H](C)/C=C/c1ccc(Oc2ccc(OCC(F)F)cc2Cl)nc1,> 100 µM
2,COC(=O)N[C@@H](C)/C=C/c1cnc(Oc2ccc(OC(C)C)cc2)s1,> 100 µM
3,CC(=O)N[C@@H](C)/C=C/c1cnc(Oc2ccc(OC(C)C)cc2)s1,53.4 µM

# Now those with a lower IC50, led by results:
row,IC50,Structure (SMILES)
1,37.2 µM,CC(=O)N[C@@H](C)/C=C/c1cnc(Oc2ccc(OCC3CC3)cc2Cl)n1C
2,12.2 µM,CC(=O)N[C@@H](C)/C=C/c1ccc(Oc2ccc3nc(C)sc3c2Cl)nc1
3,0.858 µM,CC(=O)N[C@@H](C)/C=C/c1ccc(Oc2ccc3sc(C(C)C)nc3c2Cl)nc1

# Species on record: Homo sapiens
# Experiment: Selectivity ratio of IC50 for recombinant human ACC1 to IC50 for recombinant human ACC2
# Conditions: not given
row,Structure (SMILES),Ratio IC50
1,CC(=O)N[C@@H](C)/C=C/c1ccc(Oc2ccc(OCC(F)F)cc2Cl)nc1,> 1190
2,COC(=O)N[C@@H](C)/C=C/c1cnc(Oc2ccc(OC(C)C)cc2)s1,> 1320
3,CC(=O)N[C@@H](C)/C=C/c1cnc(Oc2ccc(OC(C)C)cc2)s1,809

# Further lines, results first:
row,Ratio IC50,Structure (SMILES)
1,82,CC(=O)N[C@@H](C)/C=C/c1cnc(Oc2ccc(OCC3CC3)cc2Cl)n1C
2,469,CC(=O)N[C@@H](C)/C=C/c1ccc(Oc2ccc3nc(C)sc3c2Cl)nc1
3,21,CC(=O)N[C@@H](C)/C=C/c1ccc(Oc2ccc3sc(C(C)C)nc3c2Cl)nc1

# System: not listed separately
# Experiment: Metabolic stability in human liver microsomes assessed as parent compound remaining after 30 mins
# Type: ADME, microsome
# Conditions: read-out: Stability
row,remaining at 0.5 h,Structure (SMILES)
1,88%,CC(=O)N[C@@H](C)/C=C/c1ccc(Oc2ccc3sc(C(C)C)nc3c2Cl)nc1
2,87%,CC(=O)N[C@@H](C)/C=C/c1ccc(Oc2ccc3nc(C)sc3c2Cl)nc1

# Target: Cytochrome P450 3A4 (Homo sapiens, UniProt P08684)
# Sequence (P08684 whole entry): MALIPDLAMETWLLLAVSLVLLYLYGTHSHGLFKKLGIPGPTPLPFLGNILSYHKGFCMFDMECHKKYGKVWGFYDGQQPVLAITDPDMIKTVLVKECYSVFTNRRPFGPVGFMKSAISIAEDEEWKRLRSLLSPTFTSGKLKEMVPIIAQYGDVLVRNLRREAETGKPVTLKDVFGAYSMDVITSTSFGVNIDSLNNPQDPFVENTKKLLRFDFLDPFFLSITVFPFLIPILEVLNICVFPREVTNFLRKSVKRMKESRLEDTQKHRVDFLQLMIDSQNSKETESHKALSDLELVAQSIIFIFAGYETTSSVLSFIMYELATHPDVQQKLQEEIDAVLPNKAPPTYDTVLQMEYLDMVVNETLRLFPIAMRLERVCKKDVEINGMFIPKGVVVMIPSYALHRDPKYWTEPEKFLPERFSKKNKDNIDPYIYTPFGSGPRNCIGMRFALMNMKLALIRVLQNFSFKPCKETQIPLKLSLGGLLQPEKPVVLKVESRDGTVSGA
# Experiment: Inhibition of CYP3A4 (unknown origin)
# Type: ADME
# Conditions: not given
row,Structure (SMILES),IC50
1,CC(=O)N[C@@H](C)/C=C/c1ccc(Oc2ccc(OCC(F)F)cc2Cl)nc1,> 20 µM
2,COC(=O)N[C@@H](C)/C=C/c1cnc(Oc2ccc(OC(C)C)cc2)s1,> 20 µM
3,CC(=O)N[C@@H](C)/C=C/c1cnc(Oc2ccc(OC(C)C)cc2)s1,> 20 µM

# Results, then the molecule that gave them:
row,IC50,Structure (SMILES)
1,> 20 µM,CC(=O)N[C@@H](C)/C=C/c1cnc(Oc2ccc(OCC3CC3)cc2Cl)n1C
2,> 20 µM,CC(=O)N[C@@H](C)/C=C/c1ccc(Oc2ccc3nc(C)sc3c2Cl)nc1
3,> 20 µM,CC(=O)N[C@@H](C)/C=C/c1ccc(Oc2ccc3sc(C(C)C)nc3c2Cl)nc1

# Target: Acetyl-CoA carboxylase 2 (Homo sapiens, UniProt O00763)
# Sequence (O00763 whole entry): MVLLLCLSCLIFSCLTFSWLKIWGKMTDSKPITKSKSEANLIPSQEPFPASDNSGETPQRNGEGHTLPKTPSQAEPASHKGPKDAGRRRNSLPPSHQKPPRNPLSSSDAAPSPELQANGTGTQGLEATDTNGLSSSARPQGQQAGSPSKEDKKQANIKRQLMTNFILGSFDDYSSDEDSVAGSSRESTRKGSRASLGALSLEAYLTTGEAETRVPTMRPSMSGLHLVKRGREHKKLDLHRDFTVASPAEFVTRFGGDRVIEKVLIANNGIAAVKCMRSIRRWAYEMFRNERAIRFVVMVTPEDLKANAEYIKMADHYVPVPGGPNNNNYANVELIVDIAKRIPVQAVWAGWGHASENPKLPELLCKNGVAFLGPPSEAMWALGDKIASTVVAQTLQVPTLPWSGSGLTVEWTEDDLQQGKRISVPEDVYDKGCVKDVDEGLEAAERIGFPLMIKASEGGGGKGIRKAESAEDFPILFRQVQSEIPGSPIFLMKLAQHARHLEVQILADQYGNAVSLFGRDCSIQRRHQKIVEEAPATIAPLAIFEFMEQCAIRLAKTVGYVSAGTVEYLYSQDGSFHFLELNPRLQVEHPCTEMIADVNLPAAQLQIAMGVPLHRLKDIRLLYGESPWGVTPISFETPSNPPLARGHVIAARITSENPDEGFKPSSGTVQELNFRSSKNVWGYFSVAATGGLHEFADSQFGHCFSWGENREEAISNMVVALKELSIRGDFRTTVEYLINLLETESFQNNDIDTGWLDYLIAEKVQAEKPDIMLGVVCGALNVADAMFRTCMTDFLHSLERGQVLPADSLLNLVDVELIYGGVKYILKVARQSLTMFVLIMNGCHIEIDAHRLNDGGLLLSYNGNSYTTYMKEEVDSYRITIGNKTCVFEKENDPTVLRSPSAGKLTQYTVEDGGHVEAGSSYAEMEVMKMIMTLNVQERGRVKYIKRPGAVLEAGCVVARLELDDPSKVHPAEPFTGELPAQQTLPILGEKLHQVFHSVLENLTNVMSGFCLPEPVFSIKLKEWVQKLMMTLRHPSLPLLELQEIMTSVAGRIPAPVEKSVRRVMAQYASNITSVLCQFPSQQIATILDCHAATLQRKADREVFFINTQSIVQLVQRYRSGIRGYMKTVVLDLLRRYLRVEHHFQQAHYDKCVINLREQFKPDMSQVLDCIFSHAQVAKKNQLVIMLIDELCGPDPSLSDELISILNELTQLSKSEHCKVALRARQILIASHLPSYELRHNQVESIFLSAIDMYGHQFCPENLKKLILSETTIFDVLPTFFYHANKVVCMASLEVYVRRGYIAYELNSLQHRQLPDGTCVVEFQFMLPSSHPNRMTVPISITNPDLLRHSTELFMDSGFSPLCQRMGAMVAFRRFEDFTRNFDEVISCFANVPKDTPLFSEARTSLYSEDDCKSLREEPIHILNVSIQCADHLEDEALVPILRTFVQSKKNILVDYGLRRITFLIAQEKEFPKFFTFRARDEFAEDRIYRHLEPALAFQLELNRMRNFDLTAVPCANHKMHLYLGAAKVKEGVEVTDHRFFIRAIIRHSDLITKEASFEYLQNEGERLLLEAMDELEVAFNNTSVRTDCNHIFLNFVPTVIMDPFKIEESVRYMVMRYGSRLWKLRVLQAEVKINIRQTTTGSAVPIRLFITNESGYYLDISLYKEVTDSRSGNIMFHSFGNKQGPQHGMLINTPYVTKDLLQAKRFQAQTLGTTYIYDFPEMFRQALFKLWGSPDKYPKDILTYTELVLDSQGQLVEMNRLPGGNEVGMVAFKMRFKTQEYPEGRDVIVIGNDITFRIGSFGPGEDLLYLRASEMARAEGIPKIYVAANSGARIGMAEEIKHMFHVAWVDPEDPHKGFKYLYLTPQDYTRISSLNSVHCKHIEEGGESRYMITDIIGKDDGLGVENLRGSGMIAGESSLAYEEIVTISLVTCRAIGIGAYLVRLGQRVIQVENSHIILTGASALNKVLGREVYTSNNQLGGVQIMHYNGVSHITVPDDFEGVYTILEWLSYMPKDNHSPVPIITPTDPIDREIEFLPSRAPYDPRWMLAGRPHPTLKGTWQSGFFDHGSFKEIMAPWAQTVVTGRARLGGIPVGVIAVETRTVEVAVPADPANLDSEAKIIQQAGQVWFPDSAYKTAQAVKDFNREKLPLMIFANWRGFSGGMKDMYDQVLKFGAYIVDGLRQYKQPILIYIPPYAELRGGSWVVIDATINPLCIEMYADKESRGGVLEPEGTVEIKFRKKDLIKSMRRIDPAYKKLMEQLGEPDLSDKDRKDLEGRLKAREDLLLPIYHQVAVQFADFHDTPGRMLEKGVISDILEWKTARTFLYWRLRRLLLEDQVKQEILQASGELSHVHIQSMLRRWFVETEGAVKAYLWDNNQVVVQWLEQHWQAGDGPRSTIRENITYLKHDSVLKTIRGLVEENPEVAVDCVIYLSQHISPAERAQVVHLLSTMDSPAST
# Experiment: Inhibition of recombinant human ACC2 assessed as reduction in conversion of acetyl-CoA to malonyl-CoA incubated for 1 to 3 hrs with substrate by MALDI-TOF-MS analysis
# Conditions: not given
row,Structure (SMILES),IC50
1,CC(=O)N[C@@H](C)/C=C/c1ccc(Oc2ccc(OCC(F)F)cc2Cl)nc1,84 nM
2,COC(=O)N[C@@H](C)/C=C/c1cnc(Oc2ccc(OC(C)C)cc2)s1,76 nM
3,CC(=O)N[C@@H](C)/C=C/c1cnc(Oc2ccc(OC(C)C)cc2)s1,66 nM

# Further lines, results first:
row,IC50,Structure (SMILES)
1,26 nM,CC(=O)N[C@@H](C)/C=C/c1ccc(Oc2ccc3nc(C)sc3c2Cl)nc1
2,40 nM,CC(=O)N[C@@H](C)/C=C/c1ccc(Oc2ccc3sc(C(C)C)nc3c2Cl)nc1

# System: not listed separately
# Experiment: Metabolic stability in rat liver microsomes assessed as parent compound remaining after 30 mins
# Type: ADME, microsome
# Conditions: read-out: Stability
row,remaining at 0.5 h,Structure (SMILES)
1,77%,CC(=O)N[C@@H](C)/C=C/c1ccc(Oc2ccc3sc(C(C)C)nc3c2Cl)nc1
2,75%,CC(=O)N[C@@H](C)/C=C/c1ccc(Oc2ccc3nc(C)sc3c2Cl)nc1

# Target: Cytochrome P450 2D6 (Homo sapiens, UniProt P10635)
# Sequence (P10635 whole entry): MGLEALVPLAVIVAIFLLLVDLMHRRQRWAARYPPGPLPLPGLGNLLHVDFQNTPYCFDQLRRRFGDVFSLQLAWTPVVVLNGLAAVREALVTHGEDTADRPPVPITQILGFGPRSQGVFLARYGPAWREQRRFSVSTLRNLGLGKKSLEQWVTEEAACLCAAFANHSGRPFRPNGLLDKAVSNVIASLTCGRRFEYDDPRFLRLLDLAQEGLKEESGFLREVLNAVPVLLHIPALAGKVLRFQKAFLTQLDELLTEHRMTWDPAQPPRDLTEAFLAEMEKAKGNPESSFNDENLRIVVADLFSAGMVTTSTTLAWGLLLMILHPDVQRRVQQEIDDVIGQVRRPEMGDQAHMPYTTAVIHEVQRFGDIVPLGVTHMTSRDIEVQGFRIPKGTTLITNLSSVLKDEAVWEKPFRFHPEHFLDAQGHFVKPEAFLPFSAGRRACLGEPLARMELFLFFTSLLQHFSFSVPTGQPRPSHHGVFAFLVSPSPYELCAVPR
# Experiment: Inhibition of CYP2D6 (unknown origin)
# Type: ADME
# Conditions: not given
row,Structure (SMILES),IC50
1,CC(=O)N[C@@H](C)/C=C/c1ccc(Oc2ccc(OCC(F)F)cc2Cl)nc1,> 20 µM
2,COC(=O)N[C@@H](C)/C=C/c1cnc(Oc2ccc(OC(C)C)cc2)s1,> 20 µM
3,CC(=O)N[C@@H](C)/C=C/c1cnc(Oc2ccc(OC(C)C)cc2)s1,> 20 µM

# The remaining lines, values ahead:
row,IC50,Structure (SMILES)
1,> 20 µM,CC(=O)N[C@@H](C)/C=C/c1cnc(Oc2ccc(OCC3CC3)cc2Cl)n1C
2,> 20 µM,CC(=O)N[C@@H](C)/C=C/c1ccc(Oc2ccc3nc(C)sc3c2Cl)nc1
3,> 20 µM,CC(=O)N[C@@H](C)/C=C/c1ccc(Oc2ccc3sc(C(C)C)nc3c2Cl)nc1

# Target: T1, Cytochrome P450 1A2 (Homo sapiens, UniProt P05177)
# T1 sequence (P05177 whole entry): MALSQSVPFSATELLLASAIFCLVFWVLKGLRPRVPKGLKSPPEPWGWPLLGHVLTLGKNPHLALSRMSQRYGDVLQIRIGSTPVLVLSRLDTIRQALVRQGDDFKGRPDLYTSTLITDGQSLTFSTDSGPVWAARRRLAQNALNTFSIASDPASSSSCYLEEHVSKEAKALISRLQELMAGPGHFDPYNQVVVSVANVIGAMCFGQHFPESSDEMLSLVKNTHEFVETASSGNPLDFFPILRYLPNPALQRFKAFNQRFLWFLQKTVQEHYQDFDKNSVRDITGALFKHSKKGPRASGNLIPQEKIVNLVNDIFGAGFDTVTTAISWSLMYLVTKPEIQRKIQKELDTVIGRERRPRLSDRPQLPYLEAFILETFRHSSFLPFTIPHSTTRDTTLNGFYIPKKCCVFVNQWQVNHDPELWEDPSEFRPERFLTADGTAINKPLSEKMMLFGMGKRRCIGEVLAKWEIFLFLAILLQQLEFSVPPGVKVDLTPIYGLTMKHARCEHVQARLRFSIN
# Experiment: Inhibition of CYP1A2 (unknown origin)
# Type: ADME
# Conditions: not given
row,Structure (SMILES),IC50
1,CC(=O)N[C@@H](C)/C=C/c1ccc(Oc2ccc(OCC(F)F)cc2Cl)nc1,> 20 µM
2,COC(=O)N[C@@H](C)/C=C/c1cnc(Oc2ccc(OC(C)C)cc2)s1,> 20 µM
3,CC(=O)N[C@@H](C)/C=C/c1cnc(Oc2ccc(OC(C)C)cc2)s1,> 20 µM

# The remaining lines, values ahead:
row,IC50,Structure (SMILES)
1,> 20 µM,CC(=O)N[C@@H](C)/C=C/c1cnc(Oc2ccc(OCC3CC3)cc2Cl)n1C
2,> 20 µM,CC(=O)N[C@@H](C)/C=C/c1ccc(Oc2ccc3nc(C)sc3c2Cl)nc1
3,> 20 µM,CC(=O)N[C@@H](C)/C=C/c1ccc(Oc2ccc3sc(C(C)C)nc3c2Cl)nc1

# Target: Cytochrome P450 2C19 (Homo sapiens, UniProt P33261)
# Sequence (P33261 whole entry): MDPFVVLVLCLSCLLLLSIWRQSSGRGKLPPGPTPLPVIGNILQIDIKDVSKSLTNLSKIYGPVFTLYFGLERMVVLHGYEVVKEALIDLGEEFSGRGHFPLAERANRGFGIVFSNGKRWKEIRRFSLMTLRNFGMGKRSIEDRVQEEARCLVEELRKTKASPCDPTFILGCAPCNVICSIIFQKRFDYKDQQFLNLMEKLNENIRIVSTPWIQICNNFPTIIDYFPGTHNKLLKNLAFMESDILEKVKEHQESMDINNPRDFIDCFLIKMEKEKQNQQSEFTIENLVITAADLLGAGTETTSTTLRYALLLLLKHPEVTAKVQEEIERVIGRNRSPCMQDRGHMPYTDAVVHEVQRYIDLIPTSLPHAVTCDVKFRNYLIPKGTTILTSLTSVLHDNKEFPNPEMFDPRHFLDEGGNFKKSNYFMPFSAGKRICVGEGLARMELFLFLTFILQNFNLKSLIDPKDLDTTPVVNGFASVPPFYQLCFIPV
# Experiment: Inhibition of CYP2C19 (unknown origin)
# Type: ADME
# Conditions: not given
row,Structure (SMILES),IC50
1,CC(=O)N[C@@H](C)/C=C/c1ccc(Oc2ccc(OCC(F)F)cc2Cl)nc1,> 20 µM
2,COC(=O)N[C@@H](C)/C=C/c1cnc(Oc2ccc(OC(C)C)cc2)s1,6.5 µM
3,CC(=O)N[C@@H](C)/C=C/c1cnc(Oc2ccc(OC(C)C)cc2)s1,> 20 µM

# More lines, now with the values ahead:
row,IC50,Structure (SMILES)
1,> 20 µM,CC(=O)N[C@@H](C)/C=C/c1cnc(Oc2ccc(OCC3CC3)cc2Cl)n1C
2,> 20 µM,CC(=O)N[C@@H](C)/C=C/c1ccc(Oc2ccc3nc(C)sc3c2Cl)nc1
3,11 µM,CC(=O)N[C@@H](C)/C=C/c1ccc(Oc2ccc3sc(C(C)C)nc3c2Cl)nc1

# Target: Cytochrome P450 2C9 (Homo sapiens, UniProt P11712)
# Sequence (P11712 whole entry): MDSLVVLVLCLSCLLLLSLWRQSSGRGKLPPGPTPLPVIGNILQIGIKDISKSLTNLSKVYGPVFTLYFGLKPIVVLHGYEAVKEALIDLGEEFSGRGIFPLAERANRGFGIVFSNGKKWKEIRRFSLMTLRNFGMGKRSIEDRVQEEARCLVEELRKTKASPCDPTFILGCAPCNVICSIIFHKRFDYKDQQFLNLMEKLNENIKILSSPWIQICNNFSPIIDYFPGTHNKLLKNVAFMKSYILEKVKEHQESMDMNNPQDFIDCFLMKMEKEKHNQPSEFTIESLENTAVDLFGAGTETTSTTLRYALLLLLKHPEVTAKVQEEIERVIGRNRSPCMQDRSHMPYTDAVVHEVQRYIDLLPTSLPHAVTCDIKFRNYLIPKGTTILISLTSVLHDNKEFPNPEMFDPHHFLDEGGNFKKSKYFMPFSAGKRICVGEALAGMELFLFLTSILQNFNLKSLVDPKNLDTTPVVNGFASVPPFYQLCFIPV
# Experiment: Inhibition of CYP2C9 (unknown origin)
# Type: ADME
# Conditions: not given
row,Structure (SMILES),IC50
1,CC(=O)N[C@@H](C)/C=C/c1ccc(Oc2ccc(OCC(F)F)cc2Cl)nc1,> 20 µM
2,COC(=O)N[C@@H](C)/C=C/c1cnc(Oc2ccc(OC(C)C)cc2)s1,2.7 µM
3,CC(=O)N[C@@H](C)/C=C/c1cnc(Oc2ccc(OC(C)C)cc2)s1,4.4 µM

# Further lines, results first:
row,IC50,Structure (SMILES)
1,10 µM,CC(=O)N[C@@H](C)/C=C/c1cnc(Oc2ccc(OCC3CC3)cc2Cl)n1C
2,> 20 µM,CC(=O)N[C@@H](C)/C=C/c1ccc(Oc2ccc3nc(C)sc3c2Cl)nc1
3,14 µM,CC(=O)N[C@@H](C)/C=C/c1ccc(Oc2ccc3sc(C(C)C)nc3c2Cl)nc1
